Literature values, collected in patent US8173686B2, “Use of picoplatin to treat colorectal cancer” (priority 2006, dated 2012).

Conditions: in vivo

Structure (SMILES): N.N.O=C([O-])C1(C(=O)[O-])CCC1.[Pt+2] [carboplatin]
- main / dose-limiting toxicity: myelosuppression
